In article PMC12054212 (BMC Microbiology, 2025):
pIC50: −log10 of the molar value.

Columns and labels:
Metallo-L1 β-lactamase [1] = target: T1, Metallo-L1 β-lactamase (Stenotrophomonas maltophilia, UniProt B2FTM1); experiment: nitrocefin hydrolysis inhibition assay, absorbance at […] nm, positive control; format: biochemical
Metallo-L1 β-lactamase [2] = target: T1, Metallo-L1 β-lactamase; experiment: nitrocefin hydrolysis inhibition assay, absorbance at […] nm, […] enzyme; format: biochemical

T1 sequence (B2FTM1 22-290): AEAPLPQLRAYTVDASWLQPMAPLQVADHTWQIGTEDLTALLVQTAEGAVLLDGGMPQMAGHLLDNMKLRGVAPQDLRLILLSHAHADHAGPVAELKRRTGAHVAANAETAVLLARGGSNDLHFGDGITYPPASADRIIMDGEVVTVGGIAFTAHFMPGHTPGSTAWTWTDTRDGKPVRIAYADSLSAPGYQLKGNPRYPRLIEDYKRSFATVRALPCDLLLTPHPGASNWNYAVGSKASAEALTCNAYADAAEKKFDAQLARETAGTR

Row | pIC50 (Metallo-L1 β-lactamase [1]) | pIC50 (Metallo-L1 β-lactamase [2]) | SMILES
1 | 5.65 |  | O=C(O)CN(CCN(CC(=O)O)CC(=O)O)CC(=O)O [EDTA]
2 |  | 4.64 | Oc1c2ccccc2cc2cnc3ccccc3c12 [Benzo[j]phenanthridin-12-ol]
